Molecules are shown by their SMILES.

This assay has as its target T1, human thyroid receptor beta ligand-binding domain (LBD) (Homo sapiens, UniProt P10828).
T1 construct: Thyroid receptor beta LBD was added to the plate at a final concentration of 1 nM; purchased Invitrogen
T1 sequence (P10828 217-461 limits assumed): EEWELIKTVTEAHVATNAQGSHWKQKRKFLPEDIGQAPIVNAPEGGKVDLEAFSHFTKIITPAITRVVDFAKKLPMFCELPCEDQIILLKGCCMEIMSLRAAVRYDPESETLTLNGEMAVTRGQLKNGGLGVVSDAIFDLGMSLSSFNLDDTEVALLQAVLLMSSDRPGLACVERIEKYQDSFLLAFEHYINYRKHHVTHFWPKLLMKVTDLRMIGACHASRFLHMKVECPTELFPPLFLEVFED
Briefly: THR Biochemical Assay (Assay 1): TR-FRET thyroid receptor beta coactivator assay. As to conditions: GST-tagged thyroid receptor beta LBD 1 nM, fluorescein SRC2-2 coactivator peptide 200 nM, 1 hr at rt, TR-FRET ratio 520:495; read-out: Assay 1 (EC50, THR-beta agonist). The text has this:
THR Biochemical Assay (Assay 1)
The TR-FRET thyroid receptor beta coactivator assay was used with slight, optimized modifications of the manufacturer's protocol (Invitrogen). The assay uses a terbium-labeled anti-GST antibody, a glutathione-S-transferase (GST) tagged human thyroid receptor, beta or alpha, ligand-binding domain (LBD), and a fluorescein labeled SRC2-2 coactivator peptide. The antibody interacts with the LBD, where the agonist also binds, resulting in increased affinity for the SRC2-2 coactivator peptide causing energy transfer […] the acceptor fluorophore and a FRET emission shift from 495 to 520 nm. The energy transfer was detected as an increase in the fluorescence emission of the fluorescein acceptor, and a decrease in the fluorescence emission of the terbium donor. The assay was performed in a 384-well black plate in a final volume of 20 μL. Serial dilution of various test agonists was performed in DMSO (1% final DMSO concentration) and added to the test plate. Thyroid receptor beta LBD was added to the plate at a final concentration of 1 nM, followed by the mixture of the fluorescein labeled SRC2-2 coactivator peptide, and the terbium-labeled anti-GST antibody at final concentrations of 200 nM and 2 nM respectively. The assay was incubated for 1 hr at rt protected from light. The TR-FRET was then measured on a Victor multilabel reader (Perkin Elmer) using an excitation wavelength of 340 nm with emission filters of 495 nm and 520 nm. The assay was quantified by expressing a ratio (520:495) of the intensities, and the resulting activation curves; EC50 values were generated using a sigmoidal dose response (variable slope) equation in GraphPad™ Prism 8.0.
(In general: TR-FRET usually uses a lanthanide donor and a delayed reading to cut background.)
A word on the EC50: it is the concentration needed to bring the measured effect to its halfway point. Take `N#Cc1nn(-c2cc(Cl)c(Oc3ccc4c(c3)C3(CC(F)(F)C3)C(=O)N4)c(Cl)c2)c(=O)[nH]c1=O` [Compound 9, 2-(3,5-dichloro-4-((3,3-difluoro-2′-oxospiro[cyclobutane-1,3′-indolin]-5′-yl)oxy)phenyl)-3,5-dioxo-2,3,4,5-tetrahydro-1,2,4-triazine-6-carbonitrile]: the EC50 is less than 50 nM.

On to `Nc1nn(-c2cc(Cl)c(Oc3ccc4c(c3)C3(CC(F)(F)C3)C(=O)N4)c(Cl)c2)c(=O)[nH]c1=O` [Compound 11, 6-amino-2-(3,5-dichloro-4-((3,3-difluoro-2′-oxospiro[cyclobutane-1,3′-indolin]-5′-yl)oxy)phenyl)-1,2,4-triazine-3,5(2H,4H)-dione], for which the EC50 is 50 to 250 nM.

As to `Cc1cc(-n2nc(N)c(=O)[nH]c2=O)cc(C)c1Cc1ccc2c(n1)C(C)(C)C(=O)N2` [Compound 12, 6-amino-2-[4-({3,3-dimethyl-2-oxo-1H-pyrrolo[3,2-b]pyridin-5-yl}methyl)-3,5-dimethylphenyl]-4H-1,2,4-triazine-3,5-dione], the EC50 was in the range of 50 to 250 nM.

`O=C(O)C(=O)Nc1cc(Cl)c(Oc2ccc3c(c2)C2(CCC2)C(=O)N3)c(Cl)c1` [Compound 13, 2-((3,5-dichloro-4-((2′-oxospiro[cyclobutane-1,3′-indolin]-5′-yl)oxy)phenyl)amino)-2-oxoacetic acid]: the EC50 is less than 50 nM.

`O=C(Nc1cc(Cl)c(Oc2ccc3c(c2)C2(CCC2)C(=O)N3)c(Cl)c1)c1noc(=O)[nH]1` [Compound 14, N-(3,5-dichloro-4-((2′-oxospiro[cyclobutane-1,3′-indolin]-5′-yl)oxy)phenyl)-5-oxo-4,5-dihydro-1,2,4-oxadiazole-3-carboxamide]: the EC50 is less than 50 nM.

Take `O=C1Nc2ccc(Oc3c(Cl)cc(-c4n[nH]c(=O)[nH]c4=O)cc3Cl)cc2C12CCC2` [Compound 15, 6-(3,5-dichloro-4-((2′-oxospiro[cyclobutane-1,3′-indolin]-5′-yl)oxy)phenyl)-1,2,4-triazine-3,5(2H,4H)-dione]: the EC50 is less than 50 nM.

`Cn1nc(-c2cc(Cl)c(Oc3ccc4c(c3)C3(CCC3)C(=O)N4)c(Cl)c2)c(=O)[nH]c1=O` [Compound 16, 6-(3,5-dichloro-4-((2′-oxospiro[cyclobutane-1,3′-indolin]-5′-yl)oxy)phenyl)-2-methyl-1,2,4-triazine-3,5(2H,4H)-dione]: the EC50 is less than 50 nM.

For `Nc1nn(-c2cc(Cl)c(Oc3ccc4c(c3F)C3(CCC3)C(=O)N4)c(Cl)c2)c(=O)[nH]c1=O` [Compound 17, 6-amino-2-(3,5-dichloro-4-((4′-fluoro-2′-oxospiro[cyclobutane-1,3′-indolin]-5′-yl)oxy)phenyl)-1,2,4-triazine-3,5(2H,4H)-dione], the EC50 was less than 50 nM.

For the compound `Cc1c(Oc2c(Cl)cc(-n3nc(N)c(=O)[nH]c3=O)cc2Cl)ccc2c1C1(CCC1)C(=O)N2` [Compound 18, 6-amino-2-(3,5-dichloro-4-((4′-methyl-2′-oxospiro[cyclobutane-1,3′-indolin]-5′-yl)oxy)phenyl)-1,2,4-triazine-3,5(2H,4H)-dione], the EC50 is less than 50 nM.

In the case of `Cc1cc2c(cc1Oc1c(Cl)cc(-n3nc(N)c(=O)[nH]c3=O)cc1Cl)C1(CCC1)C(=O)N2` [Compound 19, 6-amino-2-(3,5-dichloro-4-((6′-methyl-2′-oxospiro[cyclobutane-1,3′-indolin]-5′-yl)oxy)phenyl)-1,2,4-triazine-3,5(2H,4H)-dione], the EC50 was more than 25000 nM.

On to `Cc1cc(OCC(=O)O)c(C)c(C)c1Cc1ccc2c(c1)C1(CC1)C(=O)N2` [Compound 20, 2-(2,3,5-trimethyl-4-((2′-oxospiro[cyclopropane-1,3′-indolin]-5′-yl)methyl)phenoxy)acetic acid], for which the EC50 is less than 50 nM.

For the compound `Nc1nn(-c2cc(Cl)c(Oc3cc(F)c4c(c3)C3(CCC3)C(=O)N4)c(Cl)c2)c(=O)[nH]c1=O` [Compound 21, 6-amino-2-(3,5-dichloro-4-((7′-fluoro-2′-oxospiro[cyclobutane-1,3′-indolin]-5′-yl)oxy)phenyl)-1,2,4-triazine-3,5(2H,4H)-dione], the EC50 was less than 50 nM.

For `O=C(Nc1cc(Cl)c(Oc2ccc3c(c2)C2(CC2)C(=O)N3)c(Cl)c1)c1noc(=O)[nH]1` [Compound 22, N-(3,5-dichloro-4-((2′-oxospiro[cyclopropane-1,3′-indolin]-5′-yl)oxy)phenyl)-5-oxo-4,5-dihydro-1,2,4-oxadiazole-3-carboxamide], the EC50 was less than 50 nM.

As to `Cc1c(Oc2c(Cl)cc(NC(=O)c3noc(=O)[nH]3)cc2Cl)ccc2c1C1(CC1)C(=O)N2` [Compound 23, N-(3,5-dichloro-4-((4′-methyl-2′-oxospiro[cyclopropane-1,3′-indolin]-5′-yl)oxy)phenyl)-5-oxo-4,5-dihydro-1,2,4-oxadiazole-3-carboxamide], the EC50 is less than 50 nM.

For the compound `Cc1cc(-n2nc(N)c(=O)[nH]c2=O)cc(C)c1Oc1ccc2c(c1)C1(CCC1)C(=O)N2` [Compound 24, 6-amino-2-(3,5-dimethyl-4-((2′-oxospiro[cyclobutane-1,3′-indolin]-5′-yl)oxy)phenyl)-1,2,4-triazine-3,5(2H,4H)-dione], the EC50 is less than 50 nM.

Consider `Cc1cc(NC(=O)c2noc(=O)[nH]2)cc(C)c1Oc1ccc2c(c1)C1(CCC1)C(=O)N2` [Compound 25, N-(3,5-dimethyl-4-((2′-oxospiro[cyclobutane-1,3′-indolin]-5′-yl)oxy)phenyl)-5-oxo-4,5-dihydro-1,2,4-oxadiazole-3-carboxamide], for which the EC50 is less than 50 nM.

As for `CN1C(=O)C2(CC2)c2cc(Oc3c(Cl)cc(-n4nc(N)c(=O)[nH]c4=O)cc3Cl)ccc21` [Compound 26, 6-amino-2-(3,5-dichloro-4-((1′-methyl-2′-oxospiro[cyclopropane-1,3′-indolin]-5′-yl)oxy)phenyl)-1,2,4-triazine-3,5(2H,4H)-dione], the EC50 is more than 25000 nM.

Regarding `Cc1cc(Oc2c(Cl)cc(-n3nc(N)c(=O)[nH]c3=O)cc2Cl)cc2c1NC(=O)C21CCC1` [Compound 27, 6-amino-2-(3,5-dichloro-4-((7′-methyl-2′-oxospiro[cyclobutane-1,3′-indolin]-5′-yl)oxy)phenyl)-1,2,4-triazine-3,5(2H,4H)-dione], the EC50 is less than 50 nM.

Take `Cc1cc(-n2nc(N)c(=O)[nH]c2=O)cc(C)c1Oc1ccc2c(c1)C1(CCCC1)C(=O)N2` [Compound 28, 6-amino-2-(3,5-dimethyl-4-((2′-oxospiro[cyclopentane-1,3′-indolin]-5′-yl)oxy)phenyl)-1,2,4-triazine-3,5(2H,4H)-dione]: the EC50 is less than 50 nM.

Consider `O=C(Nc1cc(Cl)c(Oc2ccc3c(c2Cl)C2(CC2)C(=O)N3)c(Cl)c1)c1noc(=O)[nH]1` [Compound 29, N-(3,5-dichloro-4-((4′-chloro-2′-oxospiro[cyclopropane-1,3′-indolin]-5′-yl)oxy)phenyl)-5-oxo-4,5-dihydro-1,2,4-oxadiazole-3-carboxamide], for which the concentration giving a half-maximal response (EC50) is less than 50 nM.

`Nc1nn(-c2cc(Cl)c(Oc3ccc4c(c3Cl)C3(CC3)C(=O)N4)c(Cl)c2)c(=O)[nH]c1=O` [Compound 30, 6-amino-2-(3,5-dichloro-4-((4′-chloro-2′-oxospiro[cyclopropane-1,3′-indolin]-5′-yl)oxy)phenyl)-1,2,4-triazine-3,5(2H,4H)-dione]: the EC50 is less than 50 nM.

Turning to `O=C1Nc2ccc(Oc3c(Cl)cc(-n4ncc(=O)[nH]c4=O)cc3Cl)c(Cl)c2C12CC2` [Compound 31, 2-(3,5-dichloro-4-((4′-chloro-2′-oxospiro[cyclopropane-1,3′-indolin]-5′-yl)oxy)phenyl)-1,2,4-triazine-3,5(2H,4H)-dione], the EC50 is less than 50 nM.

Turning to `CC1CC12C(=O)Nc1ccc(Oc3c(Cl)cc(-n4nc(N)c(=O)[nH]c4=O)cc3Cl)cc12` (stereo not shown) [Compound 33, 6-amino-2-(3,5-dichloro-4-((2-methyl-2′-oxospiro[cyclopropane-1,3′-indolin]-5′-yl)oxy)phenyl)-1,2,4-triazine-3,5(2H,4H)-dione], the 50% effective concentration (EC50) was less than 50 nM.

On to `O=C(O)C(=O)Nc1cc(Cl)c(Oc2ccc3c(c2)C(F)(F)C(=O)N3)c(Cl)c1` [Compound 36, 2-((3,5-dichloro-4-((3,3-difluoro-2-oxoindolin-5-yl)oxy)phenyl)amino)-2-oxoacetic acid], for which the EC50 is less than 50 nM.

Take `Cc1c(Oc2c(Cl)cc(-c3nn(C)c(=O)[nH]c3=O)cc2Cl)ccc2c1C1(CC1)C(=O)N2` [Compound 37, 6-(3,5-dichloro-4-((4′-methyl-2′-oxospiro[cyclopropane-1,3′-indolin]-5′-yl)oxy)phenyl)-2-methyl-1,2,4-triazine-3,5(2H,4H)-dione]: the EC50 is less than 50 nM.

Values taken from patent US11793815B2, “Oxindoles and methods of use thereof” (ALIGOS THERAPEUTICS, INC., priority 2020, dated 2023).
